# Assays:
# [1] = molecular target: T1, Protein deacetylase HDAC6 (Homo sapiens, UniProt Q9UBN7); test: Inhibition of HDAC6 (unknown origin)
# T1 sequence (Q9UBN7 whole entry): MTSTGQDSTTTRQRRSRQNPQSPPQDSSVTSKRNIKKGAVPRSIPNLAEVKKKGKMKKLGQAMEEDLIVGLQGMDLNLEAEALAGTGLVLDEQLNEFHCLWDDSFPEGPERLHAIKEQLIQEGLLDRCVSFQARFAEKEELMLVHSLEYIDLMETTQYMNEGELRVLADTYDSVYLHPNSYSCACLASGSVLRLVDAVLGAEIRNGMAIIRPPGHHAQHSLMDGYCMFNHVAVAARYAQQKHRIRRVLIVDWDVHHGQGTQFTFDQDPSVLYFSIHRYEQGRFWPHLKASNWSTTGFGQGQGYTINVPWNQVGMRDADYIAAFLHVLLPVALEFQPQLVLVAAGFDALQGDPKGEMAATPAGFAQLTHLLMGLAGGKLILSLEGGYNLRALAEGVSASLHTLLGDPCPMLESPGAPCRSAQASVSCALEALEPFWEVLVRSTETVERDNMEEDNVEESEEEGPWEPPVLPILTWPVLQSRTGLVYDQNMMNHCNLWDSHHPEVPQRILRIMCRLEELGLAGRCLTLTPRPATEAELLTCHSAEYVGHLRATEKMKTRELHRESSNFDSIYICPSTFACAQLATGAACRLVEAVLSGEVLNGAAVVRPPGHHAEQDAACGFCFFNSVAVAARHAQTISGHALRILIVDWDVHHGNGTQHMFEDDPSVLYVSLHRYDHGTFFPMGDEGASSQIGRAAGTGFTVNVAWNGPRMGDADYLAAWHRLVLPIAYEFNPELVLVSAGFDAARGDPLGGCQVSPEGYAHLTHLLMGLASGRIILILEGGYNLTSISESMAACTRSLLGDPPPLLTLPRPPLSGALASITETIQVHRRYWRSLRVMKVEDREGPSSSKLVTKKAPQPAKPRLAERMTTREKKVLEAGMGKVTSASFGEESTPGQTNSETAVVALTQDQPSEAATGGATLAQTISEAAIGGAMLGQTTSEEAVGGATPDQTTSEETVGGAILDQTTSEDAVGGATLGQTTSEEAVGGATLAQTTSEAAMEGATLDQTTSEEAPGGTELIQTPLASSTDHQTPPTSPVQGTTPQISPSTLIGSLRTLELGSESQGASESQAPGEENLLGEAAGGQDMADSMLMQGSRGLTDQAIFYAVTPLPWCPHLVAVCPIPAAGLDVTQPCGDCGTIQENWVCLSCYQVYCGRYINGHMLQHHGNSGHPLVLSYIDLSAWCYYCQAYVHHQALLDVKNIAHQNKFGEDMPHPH
# Histone deacetylase 4 = Histone deacetylase 4 (Homo sapiens, UniProt P56524); test: Inhibition of HDAC4 (unknown origin)
# Sequence of Histone deacetylase 4 (P56524 whole entry): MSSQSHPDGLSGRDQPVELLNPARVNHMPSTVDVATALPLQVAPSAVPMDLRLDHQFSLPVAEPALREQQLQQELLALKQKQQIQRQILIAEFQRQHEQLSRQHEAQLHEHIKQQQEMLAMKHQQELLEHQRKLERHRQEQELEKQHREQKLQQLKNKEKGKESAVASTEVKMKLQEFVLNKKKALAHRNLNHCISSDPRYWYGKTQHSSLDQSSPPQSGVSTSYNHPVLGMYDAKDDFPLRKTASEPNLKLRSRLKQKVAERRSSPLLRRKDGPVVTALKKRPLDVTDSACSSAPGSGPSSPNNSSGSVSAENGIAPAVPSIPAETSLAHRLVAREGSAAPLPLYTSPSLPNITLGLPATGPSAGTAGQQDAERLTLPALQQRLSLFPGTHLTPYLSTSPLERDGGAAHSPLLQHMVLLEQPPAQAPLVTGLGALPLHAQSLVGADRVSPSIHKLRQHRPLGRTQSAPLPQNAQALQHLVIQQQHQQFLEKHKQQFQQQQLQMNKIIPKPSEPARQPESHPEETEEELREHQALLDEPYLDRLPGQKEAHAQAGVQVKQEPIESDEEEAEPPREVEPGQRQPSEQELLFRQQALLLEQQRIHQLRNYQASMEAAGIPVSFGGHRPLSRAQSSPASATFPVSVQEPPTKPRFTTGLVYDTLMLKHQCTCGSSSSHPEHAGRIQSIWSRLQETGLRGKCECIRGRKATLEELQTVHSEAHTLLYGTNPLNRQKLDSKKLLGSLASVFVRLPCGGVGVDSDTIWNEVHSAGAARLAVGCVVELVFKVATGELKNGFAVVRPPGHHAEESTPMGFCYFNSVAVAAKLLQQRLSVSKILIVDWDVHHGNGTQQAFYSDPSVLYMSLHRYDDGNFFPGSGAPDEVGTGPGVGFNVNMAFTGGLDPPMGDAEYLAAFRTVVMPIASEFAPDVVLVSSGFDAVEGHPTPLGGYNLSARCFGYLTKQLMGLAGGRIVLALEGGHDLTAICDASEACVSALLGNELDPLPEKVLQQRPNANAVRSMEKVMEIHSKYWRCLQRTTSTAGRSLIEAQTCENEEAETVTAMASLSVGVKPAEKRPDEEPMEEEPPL
# Histone deacetylase 2 = Histone deacetylase 2 (Homo sapiens, UniProt Q92769); test: Inhibition of HDAC2 (unknown origin)
# Sequence of Histone deacetylase 2 (Q92769 whole entry): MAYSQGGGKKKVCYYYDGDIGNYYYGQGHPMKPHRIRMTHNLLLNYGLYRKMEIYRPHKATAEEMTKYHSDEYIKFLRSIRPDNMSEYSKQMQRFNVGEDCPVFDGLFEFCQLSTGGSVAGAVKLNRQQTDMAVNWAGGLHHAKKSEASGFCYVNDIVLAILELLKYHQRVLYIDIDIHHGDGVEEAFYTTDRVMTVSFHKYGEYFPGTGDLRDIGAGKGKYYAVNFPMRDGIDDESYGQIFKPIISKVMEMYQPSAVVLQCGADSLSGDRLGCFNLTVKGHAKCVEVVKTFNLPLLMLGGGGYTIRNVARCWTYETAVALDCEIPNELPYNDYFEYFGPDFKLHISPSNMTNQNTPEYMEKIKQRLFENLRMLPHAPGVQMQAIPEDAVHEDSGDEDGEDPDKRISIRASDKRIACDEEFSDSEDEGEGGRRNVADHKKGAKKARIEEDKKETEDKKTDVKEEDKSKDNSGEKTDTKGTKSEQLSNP
# Histone deacetylase 3 = Histone deacetylase 3 (Homo sapiens, UniProt O15379); test: Inhibition of HDAC3 (unknown origin)
# Sequence of Histone deacetylase 3 (O15379 whole entry): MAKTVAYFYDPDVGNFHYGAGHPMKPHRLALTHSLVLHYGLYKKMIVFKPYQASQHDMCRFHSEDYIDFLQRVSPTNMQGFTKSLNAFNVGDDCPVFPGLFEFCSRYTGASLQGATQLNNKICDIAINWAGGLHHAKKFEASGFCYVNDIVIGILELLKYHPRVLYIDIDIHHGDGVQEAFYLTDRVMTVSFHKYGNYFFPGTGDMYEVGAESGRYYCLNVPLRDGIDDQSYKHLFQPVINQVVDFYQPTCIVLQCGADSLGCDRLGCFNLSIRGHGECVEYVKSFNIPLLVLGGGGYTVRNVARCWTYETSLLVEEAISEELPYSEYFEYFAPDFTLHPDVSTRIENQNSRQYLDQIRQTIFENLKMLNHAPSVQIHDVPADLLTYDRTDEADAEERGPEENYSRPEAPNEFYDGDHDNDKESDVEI
# Histone deacetylase 1 = Histone deacetylase 1 (Homo sapiens, UniProt Q13547); test: Inhibition of HDAC1 (unknown origin)
# Sequence of Histone deacetylase 1 (Q13547 whole entry): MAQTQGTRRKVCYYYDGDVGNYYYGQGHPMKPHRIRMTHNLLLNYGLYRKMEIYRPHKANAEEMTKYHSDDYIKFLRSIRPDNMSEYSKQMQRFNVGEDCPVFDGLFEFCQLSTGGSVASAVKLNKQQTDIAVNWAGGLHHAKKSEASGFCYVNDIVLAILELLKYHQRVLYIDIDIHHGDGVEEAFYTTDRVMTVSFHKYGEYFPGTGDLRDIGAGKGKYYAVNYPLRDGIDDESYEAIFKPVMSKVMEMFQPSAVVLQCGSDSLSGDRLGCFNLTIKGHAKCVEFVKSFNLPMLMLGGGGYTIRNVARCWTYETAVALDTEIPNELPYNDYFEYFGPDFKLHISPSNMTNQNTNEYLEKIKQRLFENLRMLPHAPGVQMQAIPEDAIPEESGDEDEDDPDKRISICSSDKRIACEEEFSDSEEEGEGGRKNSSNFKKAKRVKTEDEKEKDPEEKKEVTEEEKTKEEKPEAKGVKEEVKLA
# [2] = molecular target: Polyamine deacetylase HDAC10 (Homo sapiens, UniProt Q969S8); test: Inhibition of HDAC10 (unknown origin)
# Sequence of Polyamine deacetylase HDAC10 (Q969S8 whole entry): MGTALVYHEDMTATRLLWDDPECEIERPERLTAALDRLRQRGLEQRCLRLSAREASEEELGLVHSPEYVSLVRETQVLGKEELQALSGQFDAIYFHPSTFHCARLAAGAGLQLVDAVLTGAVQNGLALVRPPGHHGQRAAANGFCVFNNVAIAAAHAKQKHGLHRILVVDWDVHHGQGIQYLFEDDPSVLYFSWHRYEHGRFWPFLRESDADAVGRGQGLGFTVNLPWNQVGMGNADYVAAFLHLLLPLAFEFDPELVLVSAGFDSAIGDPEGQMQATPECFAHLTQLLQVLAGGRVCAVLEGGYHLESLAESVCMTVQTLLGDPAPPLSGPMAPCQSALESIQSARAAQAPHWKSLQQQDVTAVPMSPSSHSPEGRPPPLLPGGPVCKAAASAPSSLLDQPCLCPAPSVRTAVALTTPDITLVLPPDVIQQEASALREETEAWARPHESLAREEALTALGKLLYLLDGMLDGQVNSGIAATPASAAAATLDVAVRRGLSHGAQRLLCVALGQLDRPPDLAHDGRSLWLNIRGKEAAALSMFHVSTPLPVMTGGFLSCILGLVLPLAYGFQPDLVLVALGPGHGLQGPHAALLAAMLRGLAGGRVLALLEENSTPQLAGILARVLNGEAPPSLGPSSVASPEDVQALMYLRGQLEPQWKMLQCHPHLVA
# Histone deacetylase 8 = molecular target: T2, Histone deacetylase 8 (Homo sapiens, UniProt Q9BY41); test: Inhibition of HDAC8 (unknown origin)
# T2 sequence (Q9BY41 whole entry): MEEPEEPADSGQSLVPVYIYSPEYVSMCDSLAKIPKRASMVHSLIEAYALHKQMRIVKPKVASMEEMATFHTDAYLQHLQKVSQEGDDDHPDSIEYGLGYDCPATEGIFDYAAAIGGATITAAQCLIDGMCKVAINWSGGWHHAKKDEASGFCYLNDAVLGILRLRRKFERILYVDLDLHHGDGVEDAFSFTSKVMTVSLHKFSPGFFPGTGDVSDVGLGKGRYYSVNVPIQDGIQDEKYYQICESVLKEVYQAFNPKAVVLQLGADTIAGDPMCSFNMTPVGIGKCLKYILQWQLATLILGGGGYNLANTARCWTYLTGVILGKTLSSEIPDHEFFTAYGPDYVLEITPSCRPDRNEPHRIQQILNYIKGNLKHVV
# Histone deacetylase 11 = Histone deacetylase 11 (Homo sapiens, UniProt Q96DB2); test: Inhibition of HDAC11 (unknown origin)
# Sequence of Histone deacetylase 11 (Q96DB2 whole entry): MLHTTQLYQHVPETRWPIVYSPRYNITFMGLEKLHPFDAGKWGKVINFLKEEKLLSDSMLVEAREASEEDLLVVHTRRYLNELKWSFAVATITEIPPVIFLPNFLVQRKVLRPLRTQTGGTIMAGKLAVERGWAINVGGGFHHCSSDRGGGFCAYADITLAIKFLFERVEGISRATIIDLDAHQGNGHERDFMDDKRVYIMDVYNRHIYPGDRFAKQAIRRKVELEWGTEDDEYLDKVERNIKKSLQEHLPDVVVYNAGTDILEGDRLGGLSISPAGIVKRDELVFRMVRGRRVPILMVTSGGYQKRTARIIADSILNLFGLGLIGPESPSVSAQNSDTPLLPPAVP
compound,measurement,setting,value
CN1c2ccccc2C(=O)N2[C@H](C(=O)Nc3ccc(C(=O)Nc4ccccc4N)cc3)Cc3c([nH]c4ccccc34)[C@@H]12,IC50,[1],> 100 nM
same,IC50,Histone deacetylase 4,> 100 nM
same,IC50,Histone deacetylase 2,10 nM
same,IC50,Histone deacetylase 3,27 nM
same,IC50,Histone deacetylase 1,0.16 nM
same,IC50,[2],5.5 nM
same,IC50,Histone deacetylase 8,> 100 nM
same,IC50,Histone deacetylase 11,> 100 nM

# From ChEMBL document CHEMBL6121021, “Design and Synthesis of Topoisomerases-Histone Deacetylase Dual Targeted Quinoline-Bridged Hydroxamates as Anticancer Agents” (J Med Chem, 2025)
